System: HIV with mutations in the HIV protease sequence
Experiment: Phenotypic fold resistance to protease inhibitors, protease mutations 84A/84L/84C/54M/54L/54V in a background (Examples 8-13)
Assay type: cell-based, HIV-1
Protocol: As is the case with the genotyping assays, the recombinant virus assay starts with the amplification of viral target sequences by means of PCR. The amplicons are incorporated into a proviral laboratory clone with sequences homologous to those present in the amplicon deleted. This generates a stock of chimeric viruses. The viruses are tested for their ability to grow in the presence of different concentrations of drugs. Results are obtained by calculating IC50 values for each inhibitor and by reporting the results as IC50 values, expressed in μM concentrations, or by computing the ratio of the IC50 values found for the chimeric virus to the IC50 values found for a wild type susceptible laboratory virus tested in parallel. In the latter case, resistance is expressed as “fold-resistance” compared to a wild-type susceptible HIV-1 strain. In order to meet the need for high-volume testing and a short turn-around time for an individual test, the latest generation of phenotyping assays has undergone further modifications. The use of reporter gene systems for susceptibility testing allows the implementation of laboratory automation and standardization. See Pauwels, et al., J. Virol. Methods 20, 309-321 (1998); Paulous, S., et al., International Workshop on HIV Drug Resistance, Treatment Strategies and Eradication, St. Petersburg, Fla., USA. Abstr. 46 (1997); and Deeks, S. G., et al., 2nd International Workshop on HIV Drug Resistance and Treatment Strategies, Lake Maggiore, Italy. Abstr. 53 (1998).
The ANTIVIROGRAM® assay (Virco) (WO 97/27480) is based on homologous recombination of patient derived HIV-1 gag/PR/RT sequences into a proviral HIV-1 clone correspondingly deleted for the gag/PR/RT sequences. See Pauwels, et al., J. Virol. Methods 20, 309-321 (1998). A similar assay (Phenosense ViroLogic) is based on enzymatic ligation of patient-derived PR/RT sequences into a correspondingly deleted proviral vector carrying an indicator gene, luciferase, inserted in the deleted HIV-1 envelope gene. See Deeks, S. G., et al., 2nd International Workshop on HIV Drug Resistance and Treatment Strategies, Lake Maggiore, Italy. Abstr. 53 (1998). Hertogs et al. Antimicrob. Agents Chemother. 44(3) 568-573 (2000) the disclosures of which are herein incorporated by reference.
The methods of monitoring HIV-1 drug resistance, may also be used in combination with phenotypic drug resistance testing of viral isolates. For example, in one embodiment, a phenotypic test is utilized that is based upon the construction of chimeric HIV-1 strains composed of the protease (PR) and reverse transcriptase (RT) gene sequences which are isolated and amplified from the patient viral RNA. These strains may subsequently be recombined inside CD4+ T cells with a standard laboratory isogenic (HXB2) HIV-1 DNA construct from which the PR/RT gene sequences were deleted. The recombinant strains may then be grown in the presence of the above-mentioned antiviral drugs and the susceptibility of the viral isolates may be expressed as fold-change value of the IC50 of the drug on the patient isolates over the IC50 of the drug on a wild-type laboratory reference strain.

## CC(C)CN(C[C@@H](O)[C@H](Cc1ccccc1)NC(=O)O[C@H]1CCOC1)S(=O)(=O)c1ccc(N)cc1 [Amprenavir, amprenavir]
Table 12, V055199, genotype 10I + 33F + 54M + 90M
  Fold change in IC50: 38.7 fold
Table 13, V19263, genotype 77I
  Fold change in IC50: 0.6 fold
Table 13, V20160, genotype WT
  Fold change in IC50: 1.0 fold
Table 13, V021667, genotype 10I
  Fold change in IC50: 1.1 fold
Table 13, V030496, genotype 10I + 77I
  Fold change in IC50: 0.5 fold
Table 13, V048868, genotype 10I + 54L + 71V + 77I + 90M
  Fold change in IC50: 4.1 fold
Table 13, V048874, genotype 10I + 33F + 54L + 71V + 77I + 90M
  Fold change in IC50: 32.1 fold
Table 13, V048875, genotype 10I + 33F + 54L + 71V + 77I + 90M
  Fold change in IC50: 24.6 fold
Table 13, V048877, genotype 10I + 33F + 77I + 90M
  Fold change in IC50: 7.9 fold
Table 13, V048880, genotype 10I + 33F + 77I + 90M
  Fold change in IC50: 3.8 fold
Table 13, V052940, genotype 71V
  Fold change in IC50: 0.3 fold
Table 13, V052942, genotype 10I + 71V
  Fold change in IC50: 0.5 fold
Table 13, V052943, genotype 10I + 90M
  Fold change in IC50: 0.4 fold
Table 13, V052944, genotype 10I + 90M
  Fold change in IC50: 0.7 fold
Table 13, V052945, genotype 77I + 90M
  Fold change in IC50: 0.3 fold
Table 13, V052946, genotype 71V + 90M
  Fold change in IC50: 0.5 fold
Table 13, V052947, genotype 10I + 77I + 90M
  Fold change in IC50: 1.2 fold
Table 13, V052948, genotype 10I + 71V + 90M
  Fold change in IC50: 2.0 fold
Table 13, V052949, genotype 10I + 71V + 77I + 90M
  Fold change in IC50: 0.6 fold
Table 13, V052950, genotype 33F
  Fold change in IC50: 0.7 fold
Table 13, V052951, genotype 33F + 77I
  Fold change in IC50: 0.3 fold
Table 13, V052953, genotype 10I + 33F + 77I
  Fold change in IC50: 1.5 fold
Table 13, V052954, genotype 33F + 77I + 90M
  Fold change in IC50: 2.1 fold
Table 13, V052955, genotype 33F + 71V + 90M
  Fold change in IC50: 2.7 fold
Table 13, V052968, genotype 10L/I + 33F/L + 54L + 77I
  Fold change in IC50: 2.9 fold
Table 13, V052969, genotype 10I + 33F + 54L + 90M
  Fold change in IC50: 10.4 fold
Table 13, V052970, genotype 54L
  Fold change in IC50: 0.8 fold
Table 13, V052971, genotype 10I + 54L
  Fold change in IC50: 2.6 fold
Table 13, V052972, genotype 54L + 77I
  Fold change in IC50: 1.1 fold
Table 13, V052973, genotype 10I + 54L + 77I
  Fold change in IC50: 2.1 fold
Table 13, V052974, genotype 10I + 54L + 90M
  Fold change in IC50: 1.2 fold
Table 13, V052975, genotype 10I + 54L + 71V + 90M
  Fold change in IC50: 6.2 fold
Table 13, V052976, genotype 10I + 54L + 71V + 77I + 90M
  Fold change in IC50: 2.0 fold
Table 13, V053832, genotype 10I + 33F
  Fold change in IC50: 0.6 fold
Table 13, V053854, genotype 54L + 71V
  Fold change in IC50: 5.0 fold
Virco ID 214846, genotype 10I + 33F + 54V + 71V + 77I + 90M, vs mean IC50 of wild type laboratory HIV strain
  Fold change in IC50: 4.2 fold
Virco ID V021667, genotype 10I, vs mean IC50 of wild type laboratory HIV strain
  Fold change in IC50: 1.1 fold
Virco ID V030496, genotype 10I + 77I, vs mean IC50 of wild type laboratory HIV strain
  Fold change in IC50: 0.5 fold
Virco ID V048876, genotype 33F + 54V + 77I + 90M, vs mean IC50 of wild type laboratory HIV strain
  Fold change in IC50: 1.1 fold
Virco ID V048877, genotype 10I + 33F + 77I + 90M, vs mean IC50 of wild type laboratory HIV strain
  Fold change in IC50: 7.9 fold
Virco ID V048880, genotype 10I + 33F + 77I + 90M, vs mean IC50 of wild type laboratory HIV strain
  Fold change in IC50: 3.8 fold
Virco ID V052940, genotype 71V, vs mean IC50 of wild type laboratory HIV strain
  Fold change in IC50: 0.3 fold
Virco ID V052942, genotype 10I + 71V, vs mean IC50 of wild type laboratory HIV strain
  Fold change in IC50: 0.5 fold
Virco ID V052943, genotype 10I + 90M, vs mean IC50 of wild type laboratory HIV strain
  Fold change in IC50: 0.4 fold
Virco ID V052944, genotype 10I + 90M, vs mean IC50 of wild type laboratory HIV strain
  Fold change in IC50: 0.7 fold
Virco ID V052946, genotype 71V + 90M, vs mean IC50 of wild type laboratory HIV strain
  Fold change in IC50: 0.5 fold
Virco ID V052947, genotype 10I + 77I + 90M, vs mean IC50 of wild type laboratory HIV strain
  Fold change in IC50: 1.2 fold
Virco ID V052948, genotype 10I + 71V + 90M, vs mean IC50 of wild type laboratory HIV strain
  Fold change in IC50: 2.0 fold
Virco ID V052949, genotype 10I + 71V + 77I + 90M, vs mean IC50 of wild type laboratory HIV strain
  Fold change in IC50: 0.6 fold
Virco ID V052950, genotype 33F, vs mean IC50 of wild type laboratory HIV strain
  Fold change in IC50: 0.7 fold
Virco ID V052951, genotype 33F + 77I, vs mean IC50 of wild type laboratory HIV strain
  Fold change in IC50: 0.3 fold
Virco ID V052953, genotype 10I + 33F + 77I, vs mean IC50 of wild type laboratory HIV strain
  Fold change in IC50: 1.5 fold
Virco ID V052954, genotype 33F + 77I + 90M, vs mean IC50 of wild type laboratory HIV strain
  Fold change in IC50: 2.1 fold
Virco ID V052955, genotype 33F + 71V + 90M, vs mean IC50 of wild type laboratory HIV strain
  Fold change in IC50: 2.7 fold
Virco ID V052957, genotype 10I + 33F + 54V + 90M, vs mean IC50 of wild type laboratory HIV strain
  Fold change in IC50: 5.2 fold
Virco ID V052958, genotype 10I + 33F + 54V + 77I + 90M, vs mean IC50 of wild type laboratory HIV strain
  Fold change in IC50: 7.8 fold
Virco ID V052959, genotype 10I + 33F + 54V + 77I + 90M, vs mean IC50 of wild type laboratory HIV strain
  Fold change in IC50: 7.0 fold
Virco ID V052960, genotype 10I + 33F + 54V + 71V + 90M, vs mean IC50 of wild type laboratory HIV strain
  Fold change in IC50: 6.4 fold
Virco ID V052961, genotype 54V, vs mean IC50 of wild type laboratory HIV strain
  Fold change in IC50: 0.5 fold
Virco ID V052962, genotype 10I + 54V, vs mean IC50 of wild type laboratory HIV strain
  Fold change in IC50: 0.5 fold
Virco ID V052963, genotype 54V + 77I + 90M, vs mean IC50 of wild type laboratory HIV strain
  Fold change in IC50: 0.5 fold
Virco ID V052964, genotype 54V + 71V + 90M, vs mean IC50 of wild type laboratory HIV strain
  Fold change in IC50: 0.3 fold
Virco ID V052965, genotype 10I + 54V + 77I + 90M, vs mean IC50 of wild type laboratory HIV strain
  Fold change in IC50: 0.7 fold
Virco ID V052966, genotype 10I + 54V + 71V + 90M, vs mean IC50 of wild type laboratory HIV strain
  Fold change in IC50: 1.5 fold
Virco ID V052967, genotype 10I + 54V + 71V + 77I + 90M, vs mean IC50 of wild type laboratory HIV strain
  Fold change in IC50: 0.4 fold
Virco ID V053358, genotype 33F + 54V + 77I + 90M, vs mean IC50 of wild type laboratory HIV strain
  Fold change in IC50: 1.0 fold
Virco ID V053831, genotype 33F + 54V, vs mean IC50 of wild type laboratory HIV strain
  Fold change in IC50: 7.5 fold
Virco ID V053832, genotype 10I + 33F, vs mean IC50 of wild type laboratory HIV strain
  Fold change in IC50: 0.6 fold

From patent US8574831B2, “Mutational profiles in HIV-1 reverse transcriptase correlated with phenotypic drug resistance” (Virco N.V., priority 2000, dated 2013)
